Measurements taken from the RepoRT retention time repository (doi:10.1007/s11306-011-0298-z).

Assay: RP, Waters ACQUITY UPLC HSS T3, 100 × 2.1 mm, 1.8 µm, 30 °C, 0.3 mL/min, estimated dead time 0.73 min; A: water + 0.1% formic acid, pH 3; B: methanol + 0.1% formic acid, pH 3; gradient (min/%B) 0/0 6/0 56/100 60/100
Conditions: stereoisomer not certain

Structure (SMILES) | LC retention time
O=C(O)c1ccco1 [furan-2-carboxylic acid] | 12.7 min
O=Cc1ccco1 [furfural] | 12.2 min
O=c1c(O)c(-c2ccccc2)oc2cc(O)cc(O)c12 [galangin] | 41.4 min
NCCCC(=O)O [gamma-aminobutyric acid] | 2.15 min
COc1ccc(-c2coc3cc(OC)cc(O)c3c2=O)cc1 [genistein-4,7-dimethylether] | 44.8 min
O=c1c(-c2ccc(O)cc2)coc2cc(O)cc(O)c12 [genistein] | 35.1 min
CC(C)=CCCC(C)=CCOC(=O)Cc1ccccc1 [geranyl phenylacetate] | 54.6 min
COc1ccccc1O [guaiacol] | 22.5 min
N=C(N)N [guanidine] | 1.3 min
Nc1nc2nc[nH]c2c(=O)[nH]1 [guanine] | 3.21 min
CCCCCC(=O)O [hexanoic acid] | 30.9 min
CCCCCCN [hexylamine] | 15.1 min
NCCc1cnc[nH]1 [histamine] | 1.1 min
O=C(O)c1cc2ccccc2[nH]1 [indole-2-carboxylic acid] | 38.5 min
O=C(O)c1c[nH]c2ccccc12 [indole-3-carboxylic acid] | 25.6 min
O=C(O)CCc1c[nH]c2ccccc12 [indole-3-propionic acid] | 30.3 min
c1ccc2[nH]ccc2c1 [indole] | 28.1 min
CC(C)CCN [isopentylamine] | 6.9 min
CCCCCCCCCCCCCCCCCCCCCCCC(=O)O [lignoceric acid] | 60.2 min

Structure (SMILES) | LC retention time
C=CC(C)(CCC=C(C)C)OC(=O)c1ccccc1 (configuration not stated) [linalyl benzoate] | 50.8 min
CCCCC/C=C\C/C=C\CCCCCCCC(=O)O [linoleic acid] | 53.6 min
CCC=CCC=CCC=CCCCCCCCC(=O)O [linolenic acid] | 52.3 min
CCCCCCCCCCCCCCCCCCCC(=O)OC [methyl arachidate] | 59.2 min
CCCCCCCCCCCCCCCCCCCCCC(=O)OC [methyl behenate] | 61.2 min
CCCCCCCC(=O)OC [methyl caprylate] | 44.2 min
CCCCCCCC/C=C\CCCCCCCCCC(=O)OC [methyl cis-11-eicosenoate] | 57.9 min
CCCCCCCCCCCCCCCCC(=O)OC [methyl heptadecanoate] | 57.1 min
CCC=CCC1C(=O)CCC1CC(=O)OC (configuration not stated) [methyl jasmonate] | 38.4 min
CCC=CCC=CCC=CCCCCCCCC(=O)OC [methyl linolenate] | 54.5 min
CCCCCCCCCCCCCC(=O)OC [methyl myristate] | 54.4 min
CCCCCCCCCCCCCCCCCCC(=O)OC [methyl nonadecanoate] | 58.5 min
CCCCCCCCC=CCCCCCCCC(=O)OC [methyl oleate] | 56.5 min
CCCCCCCCCCCCCCCC(=O)OC [methyl palmitate] | 56.4 min
CCCCCCC=CCCCCCCCC(=O)OC [methyl palmitoleate] | 54.9 min
CCCCCCCCCCCCCCCCCC(=O)OC [methyl stearate] | 57.8 min
COC(=O)CCS [methyl-3-mercaptoproprionate] | 33.8 min
C1COCCN1 [morpholine] | 1.4 min
CCCCCCC(=O)O [n-heptanoic acid] | 36.1 min

Second part, the molecule after the results:

LC retention time | Structure (SMILES)
20.9 min | COc1cc2ccc(=O)oc2c(OC2OC(CO)C(O)C(O)C2O)c1O (configuration not stated) [fraxin]
3.54 min | O=C(O)C=CC(=O)O [fumaric acid]
8.95 min | O=C(O)c1cc(O)c(O)c(O)c1 [gallic acid]
3.27 min | NC(CCC(=O)NC(CS)C(=O)O)C(=O)O (configuration not stated) [gamma-glutamylcysteine]
24.2 min | COC(=O)C1=COC(O)C2C(CO)=CCC12 (configuration not stated) [genipin]
17 min | O=C(O)c1cc(O)ccc1O [gentisic acid]
46.5 min | CC(=O)CCC=C(C)CCC=C(C)C [geranyl acetone]
51.3 min | CC(C)=CCCC(C)=CCOC(=O)c1ccccc1 [geranyl benzoate]
36.7 min | CC(C)=CCCC(C)=CCOC1OC(CO)C(O)C(O)C1O (configuration not stated) [geranyl glucoside]
48.2 min | CCC(=O)OCC=C(C)CCC=C(C)C [geranyl propionate]
25.5 min | C=C1CC23CC1(O)CCC2C12C=CC(O)C(C)(C(=O)O1)C2C3C(=O)O (configuration not stated) [gibberellic acid]
1.4 min | O=C(O)C(O)C(O)C(O)C(O)CO (configuration not stated) [gluconic acid]
1.22 min | O=P(O)(O)OCC1OC(O)C(O)C(O)C1O (configuration not stated) [glucose-6-phosphate]
10.2 min | O=C(O)CCCC(=O)O [glutaric acid]
9.68 min | NC(CCC(=O)NC(CSSCC(NC(=O)CCC(N)C(=O)O)C(=O)NCC(=O)O)C(=O)NCC(=O)O)C(=O)O (configuration not stated) [glutathione disulfide]
1.45 min | O=C(O)C(O)CO (configuration not stated) [glyceric acid]
1.22 min | NCC(=O)O [glycine]
2.3 min | O=C(O)CO [glycolic acid]
1.3 min | O=CC(=O)O [glyoxylic acid]
34.8 min | COc1ccc(C2CC(=O)c3c(O)cc(O)cc3O2)cc1O (configuration not stated) [hesperetin]
17.3 min | O=C(O)CNC(=O)c1ccccc1 [hippuric acid]
46.4 min | CC(CCC(=O)O)C1CCC2C3CC(O)C4CC(O)CCC4(C)C3CCC12C (configuration not stated) [hyodeoxycholic acid]
30.3 min | O=C(O)C(=O)Cc1c[nH]c2ccccc12 [indole-3-pyruvic acid]
25.9 min | Oc1ccc(C2Oc3cc(O)cc4c3C2c2cc(O)cc(O)c2C(c2ccc(O)cc2)C4C2c3cc(O)cc4c3C(c3cc(O)cc(O)c3C2c2ccc(O)cc2)C(c2ccc(O)cc2)O4)cc1 (configuration not stated) [isohopeaphenol]
18.1 min | CC(C)C(O)(CC(=O)O)C(=O)O (configuration not stated) [isopropyl malic acid]
31.5 min | COc1cc(-c2oc3cc(O)cc(O)c3c(=O)c2OC2OC(CO)C(O)C(O)C2O)ccc1O (configuration not stated) [isorhamnetin 3-glucoside]
31.7 min | COc1cc(-c2oc3cc(O)cc(O)c3c(=O)c2OC2OC(COC3OC(C)C(O)C(O)C3O)C(O)C(O)C2O)ccc1O (configuration not stated) [isorhamnetin 3-rutinoside]

LC retention time | Structure (SMILES)
37.1 min | COc1cc(-c2oc3cc(O)cc(O)c3c(=O)c2O)ccc1O [isorhamnetin]
26.1 min | COc1cc(C=Cc2cc(O)cc(OC3OC(CO)C(O)C(O)C3O)c2)ccc1O (configuration not stated) [isorhapontin]
33.7 min | CCC=CCC1C(=O)CCC1CC(=O)O (configuration not stated) [jasmonic acid]
30.7 min | O=C(O)C1OC(Oc2c(-c3ccc(O)cc3)oc3cc(O)cc(O)c3c2=O)C(O)C(O)C1O (configuration not stated) [kaempferol 3-O-glucuronide]
31.2 min | O=c1c(OC2OC(CO)C(O)C(O)C2O)c(-c2ccc(O)cc2)oc2cc(O)cc(O)c12 (configuration not stated) [kaempferol 3-glucoside]
31.4 min | CC1OC(OCC2OC(Oc3c(-c4ccc(O)cc4)oc4cc(O)cc(O)c4c3=O)C(O)C(O)C2O)C(O)C(O)C1O (configuration not stated) [kaempferol 3-rutinoside]
36.6 min | O=c1c(O)c(-c2ccc(O)cc2)oc2cc(O)cc(O)c12 [kaempferol]
2.51 min | CC(O)C(=O)O (configuration not stated) [lactic acid]
58.3 min | CC(C)=CCCC(C)C1CCC2(C)C3=C(CCC12C)C1(C)CCC(O)C(C)(C)C1CC3 (configuration not stated) [lanosterol]
34.7 min | COc1cc(-c2oc3cc(O)cc(O)c3c(=O)c2O)cc(O)c1O [laricitrin]
60 min | C=C(C)C1CCC2(C)CCC3(C)C(CCC4C5(C)CCC(O)C(C)(C)C5CCC43C)C12 (configuration not stated) [lupeol]
28.1 min | O=c1cc(-c2ccc(O)c(O)c2)oc2cc(OC3OC(CO)C(O)C(O)C3O)cc(O)c12 (configuration not stated) [luteolin 7-glucoside]
34.7 min | O=c1cc(-c2ccc(O)c(O)c2)oc2cc(O)cc(O)c12 [luteolin]
26.2 min | O=C(O)C=Cc1cccc(O)c1 [m-coumaric acid]
2.11 min | O=C(O)CC(=O)O [malonic acid]
20.7 min | COc1cc(-c2oc3cc(=O)cc(OC4OC(CO)C(O)C(O)C4O)c-3cc2OC2OC(CO)C(O)C(O)C2O)cc(OC)c1O (configuration not stated) [malvidin-3,5-diglucoside]
24.2 min | COc1cc(-c2oc3cc(=O)cc(O)c-3cc2OC2OC(CO)C(O)C(O)C2O)cc(OC)c1O (configuration not stated) [malvidin-3-galactoside]
1.38 min | OCC(O)C(O)C(O)C(O)CO (configuration not stated) [mannitol]
1.4 min | OCC1OC(OCC2OC(O)C(O)C(O)C2O)C(O)C(O)C1O (configuration not stated) [melibiose]
18.2 min | COC(=O)c1cc(O)c(O)c(O)c1 [methyl gallate]
2.4 min | COC1OC(C(=O)O)C(O)C(O)C1O (configuration not stated) [methyl-glucuronide]
28.6 min | COc1cc(-c2oc3cc(=O)cc4oc(C)cc(c2OC2OC(CO)C(O)C(O)C2O)c43)cc(OC)c1O (configuration not stated) [methylpyrano malvidin 3-glucoside]
34.5 min | COC(=O)c1ccccc1O [methylsalicylate ester]
31.9 min | O=c1c(O)c(-c2ccc(O)cc2O)oc2cc(O)cc(O)c12 [morin]
1.3 min | O=C(O)C(O)C(O)C(O)C(O)C(=O)O (configuration not stated) [mucic acid]
1.22 min | OC1C(O)C(O)C(O)C(O)C1O (configuration not stated) [myo-inositol]
27.9 min | O=C1CC(c2ccc(O)cc2)Oc2cc(OC3OC(CO)C(O)C(O)C3O)cc(O)c21 (configuration not stated) [naringenin 7-glucoside]
